Literature values, collected in article PMC5161541 (Nuclear medicine and biology, 2016).

Experiments:
[1] = biological target: σ1 receptors (Mus musculus, UniProt O55242); details: cited from earlier work
[2] = biological target: T1, σ2 receptors (Mus musculus, UniProt Q8VD00); details: read-out: Sigma-2, Ki; cited from earlier work
T1 sequence (Q8VD00 1-176): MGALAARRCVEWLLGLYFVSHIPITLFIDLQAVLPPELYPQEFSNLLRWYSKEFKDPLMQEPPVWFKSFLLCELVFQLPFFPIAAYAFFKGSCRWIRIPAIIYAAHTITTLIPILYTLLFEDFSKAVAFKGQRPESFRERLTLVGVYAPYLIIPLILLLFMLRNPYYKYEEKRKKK

[3] = tested on: (−)-cocaine induced locomotor hyperactivity; details: cited from earlier work

σ1 receptors, sequence (O55242 whole entry): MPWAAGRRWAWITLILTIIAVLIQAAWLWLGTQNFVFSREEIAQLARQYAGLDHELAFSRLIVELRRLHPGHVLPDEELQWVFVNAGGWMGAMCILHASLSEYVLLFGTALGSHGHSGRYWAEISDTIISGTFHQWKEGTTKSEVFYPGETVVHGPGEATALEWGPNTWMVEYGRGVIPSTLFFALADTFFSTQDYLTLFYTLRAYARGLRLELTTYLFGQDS

Structure (SMILES): COc1ccc(CCN2CCN(C/C=C/I)CC2)cc1OC [E-IA-DM-PE-PIPZE, (E)-1-(2-(2,3-dimethoxy-5-yl)ethyl)-4-(iodoallyl)piperazine]
- Selectivity: σ2/σ1 [1]: 216
- Ki ([1]; read-out: Sigma-1, Ki): 6.7 ± 0.9 nM
- Ki [2]: 1450 ± 220 nM
- effect on (−)-cocaine induced locomotor hyperactivity [3]: partially attenuates
